Molecules are shown by their SMILES. pIC50: −log10 of the molar value.

The target of one data set is T1, Androgen receptor (Homo sapiens, UniProt P10275).
T1 sequence (P10275 whole entry): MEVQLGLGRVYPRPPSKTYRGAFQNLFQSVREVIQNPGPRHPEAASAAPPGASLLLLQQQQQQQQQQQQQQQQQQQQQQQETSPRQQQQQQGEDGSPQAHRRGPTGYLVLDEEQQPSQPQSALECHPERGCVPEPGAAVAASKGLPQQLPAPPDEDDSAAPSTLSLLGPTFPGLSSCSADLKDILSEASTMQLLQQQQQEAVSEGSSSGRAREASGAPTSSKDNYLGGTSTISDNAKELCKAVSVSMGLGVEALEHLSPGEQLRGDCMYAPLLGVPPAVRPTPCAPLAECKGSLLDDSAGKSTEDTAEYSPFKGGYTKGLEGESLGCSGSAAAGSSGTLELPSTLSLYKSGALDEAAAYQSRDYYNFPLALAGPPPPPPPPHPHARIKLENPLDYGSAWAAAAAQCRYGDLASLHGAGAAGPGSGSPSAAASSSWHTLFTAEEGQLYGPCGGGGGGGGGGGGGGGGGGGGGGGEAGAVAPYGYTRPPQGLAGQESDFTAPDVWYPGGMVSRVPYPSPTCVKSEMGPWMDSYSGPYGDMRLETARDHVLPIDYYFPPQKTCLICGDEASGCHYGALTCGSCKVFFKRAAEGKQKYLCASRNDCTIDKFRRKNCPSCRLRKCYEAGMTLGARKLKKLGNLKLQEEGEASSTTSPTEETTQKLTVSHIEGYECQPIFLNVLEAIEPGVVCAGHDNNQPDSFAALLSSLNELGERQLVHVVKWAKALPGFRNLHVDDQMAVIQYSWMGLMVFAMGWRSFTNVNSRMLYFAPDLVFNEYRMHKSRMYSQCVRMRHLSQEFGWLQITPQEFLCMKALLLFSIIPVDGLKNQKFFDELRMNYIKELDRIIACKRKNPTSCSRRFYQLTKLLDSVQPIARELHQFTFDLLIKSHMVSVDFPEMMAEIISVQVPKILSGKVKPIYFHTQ
The data set can be described thus: biochemical.

In the next data set the target is T2, Progesterone receptor (Homo sapiens, UniProt P06401).
T2 sequence (P06401 whole entry): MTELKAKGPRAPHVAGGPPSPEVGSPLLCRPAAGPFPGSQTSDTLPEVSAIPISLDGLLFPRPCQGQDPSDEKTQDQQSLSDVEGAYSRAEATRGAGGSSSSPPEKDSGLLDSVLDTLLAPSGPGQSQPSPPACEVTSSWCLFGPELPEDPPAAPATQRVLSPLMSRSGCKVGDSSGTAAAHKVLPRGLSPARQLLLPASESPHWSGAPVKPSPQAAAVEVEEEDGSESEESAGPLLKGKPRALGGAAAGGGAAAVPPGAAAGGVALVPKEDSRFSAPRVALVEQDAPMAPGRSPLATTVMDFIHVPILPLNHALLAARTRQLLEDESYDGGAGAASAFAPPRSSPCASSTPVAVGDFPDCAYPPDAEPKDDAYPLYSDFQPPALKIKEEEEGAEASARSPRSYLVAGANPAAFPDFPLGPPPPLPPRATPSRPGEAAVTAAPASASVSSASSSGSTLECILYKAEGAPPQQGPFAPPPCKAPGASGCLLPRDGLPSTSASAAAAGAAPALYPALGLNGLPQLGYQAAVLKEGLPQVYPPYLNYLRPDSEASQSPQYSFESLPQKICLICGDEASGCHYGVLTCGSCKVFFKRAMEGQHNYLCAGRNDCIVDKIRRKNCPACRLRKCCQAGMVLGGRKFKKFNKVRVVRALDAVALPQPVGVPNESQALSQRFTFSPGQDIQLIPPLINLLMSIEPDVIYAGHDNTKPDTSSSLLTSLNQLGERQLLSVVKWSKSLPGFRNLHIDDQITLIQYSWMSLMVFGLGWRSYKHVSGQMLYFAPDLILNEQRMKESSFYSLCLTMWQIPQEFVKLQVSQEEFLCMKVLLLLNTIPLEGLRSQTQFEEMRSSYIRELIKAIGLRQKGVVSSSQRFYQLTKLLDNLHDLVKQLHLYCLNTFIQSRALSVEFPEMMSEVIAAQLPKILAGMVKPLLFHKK
Kind of data set: Displacement of [[3H]-Progesterone from progesterone receptor (unknown origin) expressed in 293 cells after 16 hrs by scintillation counting. The format is cell-based.

Data set [1] deals with T3, Mineralocorticoid receptor (Homo sapiens, UniProt P08235).
T3 sequence (P08235 whole entry): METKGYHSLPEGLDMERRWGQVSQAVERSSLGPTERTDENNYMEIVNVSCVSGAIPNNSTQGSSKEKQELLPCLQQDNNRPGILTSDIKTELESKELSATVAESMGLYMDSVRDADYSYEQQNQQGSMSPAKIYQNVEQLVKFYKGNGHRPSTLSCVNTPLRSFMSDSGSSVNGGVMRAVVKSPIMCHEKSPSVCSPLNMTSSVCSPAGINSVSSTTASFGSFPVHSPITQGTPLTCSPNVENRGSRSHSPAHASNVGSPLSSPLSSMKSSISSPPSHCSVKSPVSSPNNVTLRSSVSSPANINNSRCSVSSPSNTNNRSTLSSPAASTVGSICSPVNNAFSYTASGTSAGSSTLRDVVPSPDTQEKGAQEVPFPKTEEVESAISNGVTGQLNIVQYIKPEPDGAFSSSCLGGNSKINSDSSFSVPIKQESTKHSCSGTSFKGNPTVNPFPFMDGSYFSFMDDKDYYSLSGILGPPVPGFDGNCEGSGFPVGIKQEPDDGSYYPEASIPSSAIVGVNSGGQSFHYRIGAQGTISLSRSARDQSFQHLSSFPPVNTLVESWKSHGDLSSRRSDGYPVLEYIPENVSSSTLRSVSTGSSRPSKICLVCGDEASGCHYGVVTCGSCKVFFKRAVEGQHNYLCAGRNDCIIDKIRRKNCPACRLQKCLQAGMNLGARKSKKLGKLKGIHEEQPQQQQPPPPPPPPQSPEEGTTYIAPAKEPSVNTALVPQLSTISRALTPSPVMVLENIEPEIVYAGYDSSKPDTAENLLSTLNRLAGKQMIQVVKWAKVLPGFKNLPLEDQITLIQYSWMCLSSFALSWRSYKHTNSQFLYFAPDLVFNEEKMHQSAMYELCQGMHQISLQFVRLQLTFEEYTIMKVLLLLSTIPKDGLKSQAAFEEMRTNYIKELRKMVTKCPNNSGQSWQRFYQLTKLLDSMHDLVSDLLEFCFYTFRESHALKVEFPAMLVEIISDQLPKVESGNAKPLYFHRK
Description: Antagonist activity at human mineralocorticoid receptor expressed in COS1 cells after 1 day by luciferase reporter gene assay

A further data set concerns the target Glucocorticoid receptor (Homo sapiens, UniProt P04150). The data set can be described thus: biochemical.
The target in data set [2] is T3, Mineralocorticoid receptor. The data set can be described thus: biochemical.
Description: Displacement of [3H]aldosterone from human mineralocorticoid receptor expressed in 293 cells after 16 hrs by scintillation counting
Data set [3] can be described thus: Lipophilicity, log D of the compound at pH 7.4 by HPLC analysis. The format is physicochemical. To be noted: buffer.

Chain of Glucocorticoid receptor (P04150 whole entry, looked up): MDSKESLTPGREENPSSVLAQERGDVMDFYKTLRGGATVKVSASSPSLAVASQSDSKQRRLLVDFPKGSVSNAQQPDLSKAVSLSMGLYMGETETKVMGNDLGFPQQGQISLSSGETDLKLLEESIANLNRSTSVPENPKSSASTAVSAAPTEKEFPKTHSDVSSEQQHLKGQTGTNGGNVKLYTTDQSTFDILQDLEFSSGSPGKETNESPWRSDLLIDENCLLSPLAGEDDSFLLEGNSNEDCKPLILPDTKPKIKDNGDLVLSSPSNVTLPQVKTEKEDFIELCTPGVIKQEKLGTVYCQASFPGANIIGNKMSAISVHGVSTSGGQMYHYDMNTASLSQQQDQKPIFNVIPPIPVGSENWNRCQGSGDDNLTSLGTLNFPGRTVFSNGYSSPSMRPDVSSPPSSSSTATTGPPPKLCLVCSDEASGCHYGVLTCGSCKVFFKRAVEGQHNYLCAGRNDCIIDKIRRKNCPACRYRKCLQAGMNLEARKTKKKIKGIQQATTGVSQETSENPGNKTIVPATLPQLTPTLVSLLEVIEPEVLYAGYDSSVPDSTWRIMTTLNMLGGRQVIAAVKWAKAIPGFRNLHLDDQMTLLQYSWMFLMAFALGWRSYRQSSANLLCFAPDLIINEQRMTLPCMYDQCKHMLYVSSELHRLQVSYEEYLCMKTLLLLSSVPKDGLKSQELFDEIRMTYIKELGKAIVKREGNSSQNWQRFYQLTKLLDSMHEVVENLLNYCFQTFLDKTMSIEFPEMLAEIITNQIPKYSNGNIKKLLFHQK
Description for Androgen receptor: Displacement of [3H]testosterone from androgen receptor (unknown origin) expressed in 293 cells after 16 hrs by scintillation counting
Description for Glucocorticoid receptor: Displacement of [3H]-Dexamethasone from glucocorticoid receptor (unknown origin) expressed in 293 cells after 16 hrs by scintillation counting

By pIC50 is commonly meant −log10 of the IC50, conventionally taken in molar units. A higher pIC50 goes with a small IC50. As for `Cc1nn(CCC(C)(F)F)c(-c2ccc(F)cc2)c1-c1ccc2c(c1)NC(=O)CO2`, the pIC50 at Androgen receptor was 5.04; on Progesterone receptor, 5.40; in data set [1], 7.74; against Glucocorticoid receptor, 6.43; in data set [2], 8.00.
Turning to `Cc1nn(CC(C)C)c(-c2ccc(F)cc2)c1-c1ccc2c(c1)NC(=O)CO2`, the pIC50 at Androgen receptor was 5.43; on Progesterone receptor it was 5.37; in data set [1], 7.31; against Glucocorticoid receptor it was 6.41; in data set [2], 7.22.
As to `Cc1nn(C)c(-c2ccc(F)cc2F)c1-c1ccc2c(c1)NC(=O)CO2`, the pIC50 against Androgen receptor is < 5.00; at Progesterone receptor it was 5.03; in data set [1], 6.22; against Glucocorticoid receptor, 5.64; in data set [2], 6.72.
The term logD denotes the decadic logarithm of the distribution of all forms, ionised or not, between an organic phase and buffer at a given pH. The low end stands for lower lipophilicity, the high end for higher lipophilicity. Consider `Cc1nn(C)c(-c2ccc(F)cc2)c1-c1ccc2c(c1)NC(=O)CO2`, for which the pIC50 is < 5.00 against Androgen receptor; 5.01 on Progesterone receptor; 6.80 in data set [1]; 5.49 at Glucocorticoid receptor; 6.96 in data set [2]. In addition, in data set [3], the logD is 2.51.
Turning to `Cc1cc(-c2c(C)nn(C)c2-c2ccc(F)cc2)cc2c1OCC(=O)N2`, the pIC50 on Androgen receptor was < 5.00; at Progesterone receptor, < 5.00; in data set [1] it was 6.46; on Glucocorticoid receptor, 5.60; in data set [2], 6.82.
With `Cc1nn(CCCC(F)(F)F)c(-c2ccc(F)cc2)c1-c1ccc2c(c1)NC(=O)CO2`, the pIC50 at Androgen receptor is < 5.00; on Progesterone receptor it was 5.17; in data set [1], 7.48; against Glucocorticoid receptor, 5.96; in data set [2], 8.08.
The matching figures for `Cc1nn(Cc2ccccc2)c(-c2ccc(F)cc2)c1-c1ccc2c(c1)NC(=O)CO2`: 5.25, 5.70, 7.19, 6.20 and 7.00.
On to `Cc1nn(CCNS(C)(=O)=O)c(-c2ccc(F)cc2)c1-c1ccc2c(c1)NC(=O)CO2`, for which the pIC50 is < 5.00 against Androgen receptor; < 5.00 on Progesterone receptor; 5.70 in data set [1]; < 5.00 against Glucocorticoid receptor; 6.60 in data set [2]. The same compound had a logD in data set [3] of 1.7.
As to `Cc1nn(CCC#N)c(-c2ccc(F)cc2)c1-c1ccc2c(c1)NC(=O)CO2`, the pIC50 on Androgen receptor is < 5.00; on Progesterone receptor it was 5.24; in data set [1], 6.31; on Glucocorticoid receptor, 5.34; in data set [2] it was 6.28. In addition, the logD in data set [3] came to 1.89.
On to `Cc1nn(CCCO)c(-c2ccc(F)cc2)c1-c1ccc2c(c1)NC(=O)CO2`, for which the pIC50 at Androgen receptor is < 5.00; at Progesterone receptor, < 5.00; in data set [1], 6.17; on Glucocorticoid receptor, < 5.00; in data set [2], 6.36. Also, the logD in data set [3] was determined as 1.99.
For the compound `Cc1nn(CCC(F)(F)CO)c(-c2ccc(F)cc2)c1-c1ccc2c(c1)NC(=O)CO2`, the pIC50 against Androgen receptor was < 5.00; at Progesterone receptor it was < 5.00; in data set [1], 6.74; against Glucocorticoid receptor it was 5.60; in data set [2], 7.02. This compound returned a logD in data set [3] of 2.34.
As for `Cc1[nH]nc(-c2ccc3c(c2)NC(=O)CO3)c1-c1ccc(F)cc1`, the pIC50 at Androgen receptor was < 5.00; on Progesterone receptor, 5.80; at Glucocorticoid receptor it was < 5.00; in data set [2], 5.43.
In the case of `CCCCn1nc(C)c(-c2ccc3c(c2)NC(=O)CO3)c1-c1ccc(F)cc1`, the pIC50 is 5.44 on Androgen receptor; 5.40 at Progesterone receptor; 7.35 in data set [1]; 5.85 at Glucocorticoid receptor; 7.66 in data set [2].
With `Cn1ncc(-c2ccc3c(c2)NC(=O)CO3)c1-c1ccc(F)cc1`, the pIC50 against Androgen receptor is < 5.00; at Progesterone receptor, < 5.00; in data set [1], 6.77; at Glucocorticoid receptor it was < 5.00; in data set [2] it was 6.54.
Regarding `CC(=O)NCCn1nc(C)c(-c2ccc3c(c2)NC(=O)CO3)c1-c1ccc(F)cc1`, in data set [2], the pIC50 was < 5.00.
Turning to `Cc1nn(CC(F)(F)CCO)c(-c2ccc(F)cc2)c1-c1ccc2c(c1)NC(=O)CO2`, the pIC50 at Androgen receptor was < 5.00; at Progesterone receptor it was < 5.00; in data set [1], 6.27; at Glucocorticoid receptor, 5.89; in data set [2], 7.42. The logD in data set [3] came out at 2.11.
Turning to `Cc1nn(Cc2ccncc2)c(-c2ccc(F)cc2)c1-c1ccc2c(c1)NC(=O)CO2`, the pIC50 against Androgen receptor was < 5.00; at Progesterone receptor, < 5.00; in data set [1], 6.37; against Glucocorticoid receptor, < 5.00; in data set [2] it was 6.28. Further, the logD in data set [3] was found to be 2.2.
Turning to `CCCn1nc(C)c(-c2ccc3c(c2)NC(=O)CO3)c1-c1ccc(F)cc1`, the pIC50 was < 5.00 on Androgen receptor; 5.24 at Progesterone receptor; 6.74 in data set [1]; 5.80 against Glucocorticoid receptor; 7.09 in data set [2].
As for `Cc1nn(-c2ccccc2)c(-c2ccc(F)cc2)c1-c1ccc2c(c1)NC(=O)CO2`, the pIC50 in data set [2] is < 5.00.
For `Cc1cc(C2=C(c3ccc(F)cc3)C(=O)NC2C)cc2c1OCC(=O)N2` (stereo not given), the pIC50 on Androgen receptor and at Progesterone receptor was < 5.00 each time.
Turning to `CCn1nc(C)c(-c2ccc3c(c2)NC(=O)CO3)c1-c1ccc(F)cc1`, the pIC50 at Androgen receptor is < 5.00; on Progesterone receptor, < 5.00; in data set [1], 6.02; at Glucocorticoid receptor, 5.25; in data set [2] it was 6.29.
Take `Cc1onc(-c2ccc3c(c2)NC(=O)CO3)c1-c1ccc(F)cc1`: the pIC50 against Androgen receptor is < 5.00; at Progesterone receptor, < 5.00; in data set [1], 5.85; at Glucocorticoid receptor it was < 5.00; in data set [2], 6.15.

For the origin of these results see ChEMBL document CHEMBL3351638, “Discovery of 6-[5-(4-fluorophenyl)-3-methyl-pyrazol-4-yl]-benzoxazin-3-one derivatives as novel selective nonsteroidal mineralocorticoid receptor antagonists” (Bioorg Med Chem, 2014).
